One assay deals with KRas G12R (Homo sapiens, UniProt P01116, G12R). Description: biochemical.
The test system of the next assay is pERK in PSN1 cells. Description: Inhibition of KRas phosphorylation of ERK (Cisbio HTRF pERK assay). The settings on record: Homo sapiens, PSN1, 3 h, read-out: Inhibition (HTRF IC50) of KRas-mediated Phosphorylation of ERK, PSN1.
For a further assay, the system named is pERK in HCT116 cells. The assay is described as above. Conditions: Homo sapiens, HCT-116, read-out: Inhibition (HTRF IC50) of KRas-mediated Phosphorylation of ERK, HCT116. For orientation: Time-resolved FRET reads energy transfer from a long-lived donor to a nearby acceptor.
Assay [1] relates to phospho-ERK in MKN1 (WTdep) cells. Briefly: Inhibition of KRas-mediated phosphorylation of ERK (in-cell western). The settings on record: Homo sapiens, MKN-1, 3 hours compound, phospho-ERK normalized to GAPDH. Type of assay: cell-based. The method in brief: (§1)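 Cells were treated with compound for 3 hours (0.5% DMSO final), then fixed with formaldehyde and permeabilized with ice-cold methanol. Phospho-ERK (Thr202/Tyr204) was detected by antibody and normalized to GAPDH per well, expressed as percent of DMSO control, and IC50 obtained by 4-parameter fit.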

The test system of assay [2] is phospho-ERK in NCI-H460 (Q61H) cells. Described as above. Type of assay: cell-based. The settings on record: Homo sapiens, NCI-H460, 3 h, 3 hours compound, phospho-ERK normalized to GAPDH. Put shortly:
as §1

Assay [3] concerns phospho-ERK in NCI-H727 (G12V) cells. The assay is described as above. Type of assay: cell-based. The settings on record: Homo sapiens, NCI-H727, 3 h, 3 hours compound, phospho-ERK normalized to GAPDH. The method in brief: as §1
Assay [4] deals with phospho-ERK in AsPC-1 (G12D) cells. The description is as above. Type of assay: cell-based. The settings on record: Homo sapiens, ASPC1, 3 h, 3 hours compound, phospho-ERK normalized to GAPDH. Put shortly: as §1
For another assay, the system named is pERK in H727 cells. Briefly: Inhibition of KRas phosphorylation of ERK (Cisbio HTRF pERK assay). Conditions: Homo sapiens, NCI-H727, read-out: Inhibition (HTRF IC50) of KRas-mediated Phosphorylation of ERK, H727.
The next assay deals with KRas G12D (Homo sapiens, UniProt P01116, G12D). Briefly: biochemical.
Another assay relates to pERK in A549 cells. Description: Inhibition of KRas phosphorylation of ERK (Cisbio HTRF pERK assay). Conditions: Homo sapiens, A549, read-out: Inhibition (HTRF IC50) of KRas-mediated Phosphorylation of ERK, A549.
The subject of another assay is pERK in H358 cells. Described as above. Conditions: Homo sapiens, NCI-H358, read-out: Inhibition (HTRF IC50) of KRas-mediated Phosphorylation of ERK, H358.
In the next assay the test system is pERK in ASPC1 cells. The description is as above. Conditions: Homo sapiens, ASPC1, read-out: Inhibition (HTRF IC50) of KRas-mediated Phosphorylation of ERK, AsPC-1.
A further assay deals with pERK in MKN1 cells. The assay is described as above. The settings on record: Homo sapiens, MKN-1, 3 h, read-out: Inhibition (HTRF IC50) of KRas-mediated Phosphorylation of ERK, MKN1.
The next assay relates to pERK in H460 cells. The assay is described as above. Conditions: Homo sapiens, NCI-H460, read-out: Inhibition (HTRF IC50) of KRas-mediated Phosphorylation of ERK, H460.
The next assay addresses KRas G12V (Homo sapiens, UniProt P01116, G12V). Description: biochemical.
Another assay deals with KRas G12C (Homo sapiens, UniProt P01116, G12C). Description: biochemical.

For eight compounds, IC50 results are on record in US12398154B2, “Azaquinazoline pan-KRas inhibitors” (Mirati Therapeutics, Inc., priority 2020, dated 2025).

Molecules are shown by their SMILES.

KRas G12V, sequence (P01116 1-169 isoform P01116-2 G12V): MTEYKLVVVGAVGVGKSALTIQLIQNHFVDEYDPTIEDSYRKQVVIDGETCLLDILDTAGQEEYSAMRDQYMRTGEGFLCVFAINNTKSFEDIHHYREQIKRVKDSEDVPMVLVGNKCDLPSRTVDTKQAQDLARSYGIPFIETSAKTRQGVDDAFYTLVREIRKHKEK
KRas G12D, sequence (P01116 1-169 isoform P01116-2 G12D): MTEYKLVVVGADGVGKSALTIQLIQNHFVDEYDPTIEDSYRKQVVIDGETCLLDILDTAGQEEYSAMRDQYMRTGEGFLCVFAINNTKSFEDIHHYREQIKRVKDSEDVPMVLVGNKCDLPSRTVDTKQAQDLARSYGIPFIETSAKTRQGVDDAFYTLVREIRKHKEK
KRas G12R, sequence (P01116 1-169 isoform P01116-2 G12R): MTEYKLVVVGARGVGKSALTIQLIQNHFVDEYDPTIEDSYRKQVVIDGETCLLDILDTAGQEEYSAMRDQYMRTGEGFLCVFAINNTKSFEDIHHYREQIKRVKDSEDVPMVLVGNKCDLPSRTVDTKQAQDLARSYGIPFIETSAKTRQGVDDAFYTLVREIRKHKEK
KRas G12C, sequence (P01116 1-169 isoform P01116-2 G12C): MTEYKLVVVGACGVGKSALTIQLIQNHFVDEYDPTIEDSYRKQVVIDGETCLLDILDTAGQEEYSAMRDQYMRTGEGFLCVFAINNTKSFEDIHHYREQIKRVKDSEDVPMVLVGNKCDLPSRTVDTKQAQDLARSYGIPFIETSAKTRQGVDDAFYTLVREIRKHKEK

Broadly, the IC50 is the point on the concentration scale where inhibition reaches its midpoint. For the compound `CCc1c(F)ccc2cc(O)cc(-c3ncc4c(N5CCC[C@]6(CC(=O)N6)C5)nc(OC[C@@]56CCCN5C[C@H](F)C6)nc4c3F)c12` (single isomer, unassigned) [Example 194], the concentration for half-maximal inhibition (IC50) at KRas G12R was no more than 2 nM; in the assay with pERK in PSN1 cells it was 1350 nM; in the assay on pERK in HCT116 cells, 686 nM; in [1], 7 nM; in [2] it was 65 nM; in assay [3] it was 89 nM. The 50% inhibitory concentration (IC50) in assay [4] was 92 nM; with pERK in H727 cells, 34 nM; against KRas G12D, no more than 2 nM; in the assay on pERK in A549 cells, 63 nM; in the assay with pERK in H358 cells, 4 nM; in the assay on pERK in ASPC1 cells, 20 nM. The values for the IC50 with pERK in MKN1 cells, in the assay with pERK in H460 cells and at KRas G12V were 3 nM, 55 nM and no more than 2 nM, respectively.
On to `CCc1c(F)ccc2cc(O)cc(-c3ncc4c(N5CC6C(=O)NC(=O)C6C5)nc(OC[C@@]56CCCN5C[C@H](F)C6)nc4c3F)c12` (stereo partly shown) [Example 197], for which the concentration for half-maximal inhibition (IC50) against KRas G12R is no more than 2 nM; in the assay with pERK in PSN1 cells, no less than 10000 nM; in the assay on pERK in HCT116 cells, 620 nM; in assay [1] it was 11 nM; in [2], 293 nM; in assay [3], 841 nM. Besides, the half-maximal inhibitory concentration (IC50) in assay [4] is 144 nM; with pERK in H727 cells it was 348 nM; against KRas G12D, no more than 2 nM; in the assay with pERK in H358 cells it was 112 nM; in the assay on pERK in ASPC1 cells, 57 nM; in the assay with pERK in MKN1 cells, 23 nM. Besides, the half-inhibitory concentration (IC50) is 183 nM with pERK in H460 cells and no more than 2 nM against KRas G12V.
Turning to `C#Cc1c(F)ccc2cc(O)cc(-c3ncc4c(N5CCOC[C@@](C)(O)C5)nc(OC[C@@]56CCCN5C[C@H](F)C6)nc4c3F)c12` [Example 201, (S)-4-(7-(8-ethynyl-7-fluoro-3-hydroxynaphthalen-1-yl)-8-fluoro-2-(((2R,7aS)-2-fluorohexahydro-1H-pyrrolizin-7a-yl)methoxy)pyrido[4,3-d]pyrimidin-4-yl)-6-methyl-1,4-oxazepan-6-ol], the IC50 is no more than 2 nM against KRas G12R; 2390 nM with pERK in PSN1 cells; 187 nM with pERK in HCT116 cells; 2 nM in [1]; 100 nM in [2]; 110 nM in [3]. Also, the IC50 is 91 nM in [4]; 42 nM with pERK in H727 cells; no more than 2 nM against KRas G12D; 223 nM in the assay with pERK in A549 cells; 12 nM with pERK in H358 cells; 23 nM in the assay on pERK in ASPC1 cells. The results for the half-maximal inhibitory concentration (IC50) with pERK in MKN1 cells, in the assay on pERK in H460 cells and on KRas G12V were 15 nM, 118 nM and no more than 2 nM, respectively.
Regarding `CCc1c(F)ccc2cc(O)cc(-c3ncc4c(N5CCC[C@@](C)(O)C5)nc(OCC5(CN6CCCC6)CC5)nc4c3F)c12` [Example 202, (3R)-1-[7-(8-ethyl-7-fluoro-3-hydroxy-1-naphthyl)-8-fluoro-2-[[1-(pyrrolidin-1-ylmethyl)cyclopropyl]methoxy]pyrido[4,3-d]pyrimidin-4-yl]-3-methyl-piperidin-3-ol], the IC50 was no more than 2 nM against KRas G12R; 2490 nM in the assay with pERK in PSN1 cells; 47 nM in the assay with pERK in HCT116 cells; 3 nM in assay [1]; 74 nM in [2]; 159 nM in assay [3]. The IC50 in [4] was 60 nM; with pERK in H727 cells, 33 nM; on KRas G12D, no more than 2 nM; in the assay on pERK in A549 cells, 9 nM; in the assay with pERK in H358 cells, 4 nM; in the assay with pERK in ASPC1 cells it was 7 nM. The concentration for half-maximal inhibition (IC50) in the assay with pERK in MKN1 cells was 5 nM; in the assay with pERK in H460 cells, 28 nM; against KRas G12V, no more than 2 nM; against KRas G12C it was no more than 2 nM.
As for `CCc1c(F)ccc2cc(O)cc(-c3ncc4c(N5CCC[C@@]6(CNC(=O)N6)C5)nc(OC[C@@]56CCCN5C[C@H](F)C6)nc4c3F)c12` [Example 300, (R)-7-(7-(8-ethyl-7-fluoro-3-hydroxynaphthalen-1-yl)-8-fluoro-2-(((2R,7aS)-2-fluorohexahydro-1H-pyrrolizin-7a-yl)methoxy)pyrido[4,3-d]pyrimidin-4-yl)-1,3,7triazaspiro[4.5]decan-2-one], the 50% inhibitory concentration (IC50) is no more than 2 nM against KRas G12R; 1380 nM in the assay with pERK in PSN1 cells; 37 nM in assay [1]; 71 nM in [2]; 372 nM in [3]; 251 nM in assay [4]. Moreover, the IC50 with pERK in H727 cells is 89 nM; at KRas G12D, no more than 2 nM; with pERK in H358 cells, 14 nM; in the assay on pERK in ASPC1 cells, 38 nM; in the assay with pERK in MKN1 cells, 7 nM; at KRas G12V, no more than 2 nM.
Regarding `CCc1c(F)ccc2cc(O)cc(-c3ncc4c(N5CCC[C@@](C)(O)C5)nc(OC[C@@]56CCCN5[C@@H](CO)CC6)nc4c3F)c12` [Example 301, (R)-1-(7-(8-ethyl-7-fluoro-3-hydroxynaphthalen-1-yl)-8-fluoro-2-(((3R,7aS)-3-(hydroxymethyl)tetrahydro-1H-pyrrolizin-7a(5H)-yl)methoxy)pyrido[4,3-d]pyrimidin-4-yl)-3-methylpiperidin-3-ol], the IC50 at KRas G12R is no more than 2 nM; in the assay with pERK in PSN1 cells it was 3930 nM; in the assay on pERK in HCT116 cells, 456 nM; in assay [1], 15 nM; in assay [2], 416 nM; in [3], 520 nM. For the same compound, the IC50 in assay [4] was 216 nM; with pERK in H727 cells, 199 nM; against KRas G12D, no more than 2 nM; with pERK in H358 cells, 46 nM; with pERK in ASPC1 cells it was 54 nM; in the assay on pERK in MKN1 cells it was 14 nM. Also, the half-inhibitory concentration (IC50) with pERK in H460 cells is 216 nM; against KRas G12V it was no more than 2 nM.
For the compound `CCc1c(F)ccc2cc(O)cc(-c3ncc4c(N5CCC[C@@](C)(O)C5)nc(OC[C@]56CCCN5[C@H](CO)CC6)nc4c3F)c12` [Example 302, (R)-1-(7-(8-ethyl-7-fluoro-3-hydroxynaphthalen-1-yl)-8-fluoro-2-(((3S,7aR)-3-(hydroxymethyl)tetrahydro-1H-pyrrolizin-7a(5H)-yl)methoxy)pyrido[4,3-d]pyrimidin-4-yl)-3-methylpiperidin-3-ol], the half-maximal inhibitory concentration (IC50) against KRas G12R is no more than 2 nM; in the assay on pERK in PSN1 cells it was 2530 nM; in the assay on pERK in HCT116 cells it was 179 nM; in assay [1], 5 nM; in [2] it was 193 nM; in assay [3], 360 nM. In addition, the IC50 was 152 nM in assay [4]; 82 nM in the assay on pERK in H727 cells; no more than 2 nM at KRas G12D; 65 nM in the assay with pERK in A549 cells; 26 nM in the assay on pERK in H358 cells; 31 nM in the assay on pERK in ASPC1 cells. Further, the IC50 with pERK in MKN1 cells is 3 nM; in the assay on pERK in H460 cells it was 120 nM; against KRas G12V, no more than 2 nM.
Take `CCc1c(F)ccc2cc(O)cc(-c3ncc4c(N5CCCCCC(S(C)(=O)=O)C5)nc(OC[C@@]56CCCN5C[C@H](F)C6)nc4c3F)c12` (stereo partly drawn) [Example 309, 5-ethyl-6-fluoro-4-(8-fluoro-2-(((2R,7aS)-2-fluorohexahydro-1H-pyrrolizin-7a-yl)methoxy)-4-(3-(methylsulfonyl)azocan-1-yl)pyrido[4,3-d]pyrimidin-7-yl)naphthalen-2-ol]: the IC50 amounted to 3 nM against KRas G12R; 8330 nM in the assay with pERK in PSN1 cells; 26 nM with pERK in HCT116 cells; 59 nM in assay [2]; 272 nM in [3]; 176 nM in [4]. Moreover, the IC50 with pERK in H727 cells amounted to 37 nM; against KRas G12D, 4 nM; in the assay with pERK in A549 cells, 113 nM; in the assay on pERK in H358 cells, 26 nM; with pERK in ASPC1 cells, 54 nM; in the assay on pERK in MKN1 cells, 2 nM. Moreover, the values for the IC50 with pERK in H460 cells and at KRas G12V were 57 nM and no more than 2 nM, respectively.
